# Test results: patent publication US20200190464A1, “NOVEL LAC[…] ANTIVIRAL EFFECT AND COMPOSITION THEREOF” (priority 2017, published 2020)
# Test system: A/CK/ANYANG/MS96 (H9N2)
# Design: species or system low-pathogenic avian influenza H9N2 serotype virus
structure (smiles),measurement,value
"CCOC(=O)C1=C[C@@H](OC(CC)CC)[C@H](NC(C)=O)[C@@H](N)C1 [Tamiflu, Oseltamivir phosphate]",HA positive (eggs),0/3
same,HA titer,0
same,antiviral activity (virus detection in sensitized and inoculated eggs),showed antiviral activity
